The text below walks through data of ChEMBL document CHEMBL3817817, “The design strategy of selective PTP1B inhibitors over TCPTP” (Bioorg Med Chem, 2016).

Assay [1] deals with T1, Tyrosine-protein phosphatase non-receptor type 2 (Homo sapiens, UniProt P17706).
T1 sequence (P17706 whole entry): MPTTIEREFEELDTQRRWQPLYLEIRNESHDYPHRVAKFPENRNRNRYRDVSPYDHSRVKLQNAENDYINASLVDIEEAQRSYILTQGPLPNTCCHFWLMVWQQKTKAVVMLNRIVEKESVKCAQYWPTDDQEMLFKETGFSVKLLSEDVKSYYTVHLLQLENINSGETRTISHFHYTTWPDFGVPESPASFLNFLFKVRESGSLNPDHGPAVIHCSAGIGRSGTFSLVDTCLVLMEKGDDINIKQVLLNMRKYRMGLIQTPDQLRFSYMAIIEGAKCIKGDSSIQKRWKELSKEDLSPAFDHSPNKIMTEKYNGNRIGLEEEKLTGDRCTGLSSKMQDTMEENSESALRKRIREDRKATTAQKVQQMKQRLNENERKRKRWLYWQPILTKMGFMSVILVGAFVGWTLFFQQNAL
As to the kind of experiment: Inhibition of human TCPTP (1 to 296 residues) catalytic domain expressed in Escherichia coli BL21 cells using fluorescein diphosphate as substrate by microplate reader method.

In assay [2] the target is T1, Tyrosine-protein phosphatase non-receptor type 2. As to the kind of experiment: Inhibition of recombinant TCPTP (unknown origin) at pH 7.
The target of assay [3] is T2, Tyrosine-protein phosphatase non-receptor type 1 (Homo sapiens, UniProt P18031).
T2 sequence (P18031 whole entry): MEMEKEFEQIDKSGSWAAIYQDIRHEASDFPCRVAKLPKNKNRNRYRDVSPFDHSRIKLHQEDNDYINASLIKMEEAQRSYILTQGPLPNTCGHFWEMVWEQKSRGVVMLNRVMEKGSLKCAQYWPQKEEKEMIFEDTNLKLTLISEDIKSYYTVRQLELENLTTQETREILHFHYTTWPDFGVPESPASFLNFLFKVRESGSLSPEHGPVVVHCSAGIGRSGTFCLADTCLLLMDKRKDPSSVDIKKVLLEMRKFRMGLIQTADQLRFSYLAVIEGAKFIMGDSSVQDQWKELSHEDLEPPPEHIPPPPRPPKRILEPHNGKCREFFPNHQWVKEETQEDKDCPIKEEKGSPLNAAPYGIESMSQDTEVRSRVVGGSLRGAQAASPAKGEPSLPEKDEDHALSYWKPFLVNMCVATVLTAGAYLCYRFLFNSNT
As to the kind of experiment: Inhibition of PTP1B (unknown origin).

Assay [4] deals with T1, Tyrosine-protein phosphatase non-receptor type 2. As to the kind of experiment: Inhibition of TCPTP (unknown origin).
Assay [5] is filed under the species Homo sapiens. As to the kind of experiment: Selectivity ratio of IC50 for human recombinant TCPTP (1 to 341 residues) to IC50 for human recombinant PTP1B.
For assay [6], the target named is T1, Tyrosine-protein phosphatase non-receptor type 2. In words: Inhibition of human recombinant TCPTP (1 to 341 residues) expressed in Escherichia coli using p-nitrophenyl phosphate as substrate by UV spectroscopy.
Assay [7] addresses T2, Tyrosine-protein phosphatase non-receptor type 1. As to the kind of experiment: Inhibition of human recombinant PTP1B expressed in Escherichia coli using p-nitrophenyl phosphate as substrate by UV spectroscopy.
The species entered for assay [8] is Homo sapiens. As to the kind of experiment: Selectivity ratio of IC50 for TCPTP (unknown origin) to IC50 for human PTP1B (1 to 288 residues).
Assay [9] concerns the target T2, Tyrosine-protein phosphatase non-receptor type 1. As to the kind of experiment: Inhibition of human PTP1B (1 to 288 residues) expressed in Escherichia coli BL21 (DE3) cells using p-nitrophenyl phosphate as substrate monitered every 30 secs for 15 mins by micro plate reader method.
The species entered for assay [10] is Homo sapiens. As to the kind of experiment: Selectivity ratio of IC50 for human TCPTP to IC50 for human recombinant PTP1B.
The target in assay [11] is T2, Tyrosine-protein phosphatase non-receptor type 1. In words: Inhibition of human recombinant PTP1B catalytic domain using p-nitrophenyl phosphate as substrate by micro plate reader method.
The target in assay [12] is T1, Tyrosine-protein phosphatase non-receptor type 2. As to the kind of experiment: Inhibition of human TCPTP using p-nitrophenyl phosphate as substrate by micro plate reader method.
Assay [13] is filed under the species Homo sapiens. As to the kind of experiment: Selectivity ratio of IC50 for human GST-tagged TCPTP to IC50 for human recombinant PTP1B catalytic domain.
Assay [14] has as its target T2, Tyrosine-protein phosphatase non-receptor type 1. As to the kind of experiment: Inhibition of human recombinant PTP1B catalytic domain expressed in Escherichia coli BL21 (DE3) cells using p-Nitrophenyl phosphate as substrate by microplate reader method.
Assay [15] concerns the target T1, Tyrosine-protein phosphatase non-receptor type 2. As to the kind of experiment: Inhibition of human GST-tagged TCPTP expressed in Escherichia coli BL21 (DE3) cells using p-Nitrophenyl phosphate as substrate by microplate reader method.
For assay [16], the target named is T2, Tyrosine-protein phosphatase non-receptor type 1. In words: Inhibition of human PTP1B (1 to 288 residues) expressed in Escherichia coli BL21 (DE3) cells using p-nitrophenyl phosphate as substrate by colorimetric method.
Assay [17] is filed under the species Homo sapiens. As to the kind of experiment: Selectivity ratio of Ki for TCPTP (unknown origin) to Ki for human PTP1B (1 to 288 residues).
Assay [18] has as its target T1, Tyrosine-protein phosphatase non-receptor type 2. As to the kind of experiment: Inhibition of TCPTP (unknown origin) using p-nitrophenyl phosphate as substrate by colorimetric method.
Assay [19] deals with T2, Tyrosine-protein phosphatase non-receptor type 1. As to the kind of experiment: Inhibition of PTP1B catalytic domain (1 to 321 residues) (unknown origin) expressed in Escherichia coli BL21 (DE3) cells using p-Nitrophenyl phosphate as substrate.
The species named for assay [20] is Homo sapiens. In words: Selectivity ratio of Ki for TCPTP (unknown origin) to Ki for PTP1B catalytic domain (1 to 321 residues) (unknown origin).

By pIC50 is commonly meant the IC50 on a negative log10 scale, so that one unit is a factor of ten. Usually pKi stands for the Ki on a negative log10 scale, so that one unit is a factor of ten.

pIC50, pKi: −log10 of the molar value.

Consider `COC(=O)c1ccc(C(C/C=C/c2ccccc2)(Cc2ccc(C(F)(F)P(=O)(O)O)cc2)n2nnc3ccccc32)cc1` (stereo unspecified), for which the pIC50 in assay [1] was 7.06.

Regarding `O=C(O)C(=O)Nc1sc2c(c1C(=O)O)CCN(CCc1ccccc1)C2`, the negative-log Ki (pKi) in [2] was 5.14.

Regarding `COC(=O)c1c(O)cccc1OC/C=C/c1cccc(-c2onc(C(=O)O)c2CO)c1`, the negative logarithm of the IC50 (pIC50) in assay [3] is 6.04; in assay [4] it was 4.72.

For `O=C(O)C(=O)c1ccc(OCc2ccc(COc3ccc(C(=O)C(=O)O)cc3)c(C(=O)Nc3ccc(Oc4ccccc4)cc3)c2)cc1`, in the assay filed under Homo sapiens [5], the Ratio IC50 amounted to 1.6. Moreover, the values for the pIC50 in assay [6] and in assay [7] were 5.62 and 5.82, respectively.

With `COC(=O)c1c(O)cccc1OC/C=C/c1ccc(F)c(-c2cc(C(=O)O)no2)c1`, the results for the pIC50 in [4] and in assay [9] were 3.79 and 5.16, respectively. In addition, in the assay listed under Homo sapiens [8], the Ratio IC50 came out at 23.8.

On to `CO[C@H]1O[C@H](COCc2ccccc2)[C@@H](OCc2ccccc2)[C@H](OCc2cn(CCCOc3ccc(O)c(C(=O)O)c3)nn2)[C@H]1OCc1cn(CCCOc2ccc(O)c(C(=O)O)c2)nn1`, for which, in the assay filed under Homo sapiens [10], the Ratio IC50 was determined as 7.05. Besides, the negative logarithm of the IC50 (pIC50) in assay [11] was 5.11; in [12], 4.27.

Regarding `COC(=O)[C@H](Cc1ccc(O)cc1)n1cc(CO[C@H]2[C@@H](OCc3ccccc3)[C@@H](OC)O[C@H](COCc3ccccc3)[C@H]2OCc2cn([C@@H](Cc3ccc(O)cc3)C(=O)OC)nn2)nn1`, the Ratio IC50 in the assay filed under Homo sapiens [13] worked out at 6.2. Further, the pIC50 in [14] is 5.02; in [15], 4.22.

Turning to `CO[C@H]1O[C@H](Cn2cc(NC(=O)c3cccc(C(=O)Nc4cn(C[C@H]5O[C@H](OC)[C@H](OCc6ccccc6)[C@H](OCc6ccccc6)[C@@H]5OCc5ccccc5)nn4)c3)nn2)[C@@H](OCc2ccccc2)[C@@H](OCc2ccccc2)[C@H]1OCc1ccccc1`, the Ratio IC50 in the assay listed under Homo sapiens [10] was 10.3. Moreover, the negative-log IC50 (pIC50) is 5.82 in assay [11] and 4.81 in assay [12].

`CC(=O)N[C@H](Cc1ccc(N(C(=O)C(=O)O)c2ccccc2C(=O)O)c2ccccc12)C(=O)NCCCCCOc1cc2ccccc2cc1C(=O)O` showed a pIC50 in [4] of 7.31.

On to `CCCCCNC(=O)[C@H](Cc1ccc(C(=O)C(=O)Nc2ccccc2C(=O)O)c(/C=C/C(N)=O)c1)NS(C)(=O)=O`, for which the pKi in [16] was 6.77; in assay [18], 6.80. In addition, the Ratio Ki in the assay filed under Homo sapiens [17] came to 0.94.

As to `NC(=O)[C@H](Cc1ccc(C(F)(F)P(=O)(O)O)cc1)NC(=O)[C@H](Cc1ccc(O)cc1)NC(=O)Cc1ccc(C(F)(F)P(=O)(O)O)cc1`, the pKi in assay [19] was 8.31; in assay [4], 7.70. Besides, the Ratio Ki in the assay filed under Homo sapiens [20] worked out at 4.08.
